Test results reported in patent US20100204119A1, “4-AMINO-5-OXO-7,8-DIHYDROPYRIMIDO[5,4-F][1,4]OXAZEPIN-6(5H)-YL PHENYL DERIVATIVES” (Pfizer Inc, priority 2009, published 2010).

Target: T1, Human full-length diacylglycerol:acylCoA acyltransferase 1 (DGAT-1) (Homo sapiens, UniProt O75907)
T1 sequence (O75907 1-488): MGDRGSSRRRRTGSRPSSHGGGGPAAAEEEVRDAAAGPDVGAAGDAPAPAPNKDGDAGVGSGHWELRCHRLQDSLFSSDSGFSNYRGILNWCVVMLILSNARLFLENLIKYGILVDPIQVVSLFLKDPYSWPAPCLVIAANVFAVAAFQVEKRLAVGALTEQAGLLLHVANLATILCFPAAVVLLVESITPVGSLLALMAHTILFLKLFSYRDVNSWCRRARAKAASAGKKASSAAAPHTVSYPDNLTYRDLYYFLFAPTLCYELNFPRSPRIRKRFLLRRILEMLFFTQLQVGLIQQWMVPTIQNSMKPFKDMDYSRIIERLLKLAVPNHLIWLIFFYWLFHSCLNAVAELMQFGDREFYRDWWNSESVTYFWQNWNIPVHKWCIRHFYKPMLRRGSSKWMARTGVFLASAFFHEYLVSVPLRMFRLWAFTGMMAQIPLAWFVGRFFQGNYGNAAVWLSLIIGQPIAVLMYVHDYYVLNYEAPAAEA
Assay: In vitro assay for inhibition of DGAT-1 activity (DGAT 1 Reduced Microsome Multidose Assay)
Settings: average where n > 1
Method: Human full-length diacylglycerol:acylCoA acyltransferase 1 (DGAT-1) was expressed in Sf9 insect cells which are then lysed and a crude membrane fraction (105,000×g pellet) was prepared.
Inhibitors in DMSO were pre-incubated with membranes before initiating the DGAT-1 reaction by the addition of decanoylCoA. […] The inhibitors were present at a range of eight concentrations to generate an apparent IC50 for each compound. […] Specifically, the eight concentrations used were 3 μM, 1 μM, 300 nM, 100 nM, 30 nM, 10 nM, 3 nM and 1 nM.
The reactions were allowed to proceed for 1.5 hours at room temperature and then terminated by the addition of 20 μl of EDTA (40 mM). Reaction mixture is then mixed by trituration with 30 μl of Microscint™-E (Perkin Elmer). […] Four separate trials were conducted. The method of analysis of Trial 1 was the same as Trial 4 (described above) except microsomes were utilized at 25 μg/mL instead of 5 μg/mL. The method of analysis of Trial 2 was the same as Trial 4 (described above) except eleven (11) concentrations of inhibitor were employed instead of eight (8). The method of analysis of Trial 3 was the same as Trial 2 except the compounds were serially diluted in a different laboratory.
Where this DGAT-1 inhibition assay was performed on a compound more than once, an average is provided for that compound.

Compound `CCN(C(=O)C[C@H]1CC[C@H](c2ccc(N3CCOc4ncnc(N)c4C3=O)cc2)CC1)[C@H](C)CO` [Example 6Z] has an IC50 (Trial 1 Human IC50, Trial 1: as Trial 4 except microsomes at 25 μg/mL instead of 5 μg/mL) of 89.6 nM.
`C[C@@H]1CN(c2ccc(C(=O)N(C)C)cc2)C(=O)c2c(N)ncnc2O1` [Example 6BG] showed an IC50 (Trial 4 Human IC50, Trial 4: eight concentrations of inhibitor, microsomes 5 μg/mL) of 1670 nM.
With `CC(C)(C)OC(=O)N1CCC(c2ccc(N3CCOc4ncnc(N)c4C3=O)cc2)CC1` [Example 7B] the IC50 (Trial 2 Human IC50, Trial 2: as Trial 4 except eleven concentrations of inhibitor instead of eight) was 55.1 nM and the IC50 (Trial 3 Human IC50, Trial 3: as Trial 2 except compounds serially diluted in a different laboratory) was 30 nM.
